Laboratory results from US12110507B2, “Method for preparing functional hepatic progenitor cells or hepatic cells, or functional small intestinal epithelial progenitor cells or small intestinal epithelial cells” (priority 2017, dated 2024).
Where two headings read alike, the source gives them in different places.

Key:
[1] = test system: hepatic progenitor cells differentiated from iPSC-K cells; assay: culture of hepatic progenitor cells differentiated from iPSC-K cells in the presence of an antibiotic (selection); assay type: cell-based, human; settings: for colony of cells after culture with antibiotic: concentration and culture period of each antibiotic as in Table 5
Description: The iPSC-K cells were cultured until becoming approximately 80% confluent. […] The colony was dissociated by gentle tapping of the dish and then suspended by the addition of hiPSC medium. The obtained cell suspension was transferred to a dish coated with gelatin, and incubated under conditions of 15 minutes, 37° C., and 5% CO2 to remove the feeder cells. The supernatant was centrifuged, and the recovered iPSC-K cells were suspended in EB medium (having the composition described below).
The EBs were recovered and suspended in XF32 medium (Uchida, H. et al., JCI Insight, 2017; 2 (1): e86492, doi:10.1172/jci.insight.86492). The EBs were placed at a concentration of 20 EBs/well in a 24-well plate coated with collagen, and differentiated into hepatic progenitor cells by adhesion culture at 37° C. for 35 days in 5% CO2. Then, the cells were further cultured for 2 days using modified SCM-6F8 medium (Wang, X. et al., Nature, 2015; 522 (7555): 173-8, doi:10.1038/nature14484, Epub 2015 Jun. 3) supplemented with 3 μg/ml puromycin (Wako Pure Chemical Industries, Ltd., #160-23151).
Functional hepatic progenitor cells were prepared from iPSC-K cells by the same procedures as in the sections (2-1) and (2-2) except that various antibiotics were used instead of puromycin. The antibiotics used and their concentrations, and the number of culture days will be shown below.

[2] = test system: hepatic progenitor cells differentiated from SEES5 cells; assay: culture of hepatic progenitor cells differentiated from SEES5 cells in the presence of an antibiotic (selection); assay type: cell-based, human; settings: for colony of cells after culture with antibiotic: concentration and culture period of each antibiotic as in Table 6 (3 days)
[3] = test system: functional hepatic progenitor cells prepared from SEES5 cells; settings: 5 mg/ml or 8 mg/ml ammonia, 2 days, after puromycin selection
[4] = test system: functional hepatic progenitor cells prepared from iPSC-O cells; assay: selective culture with ammonia of functional hepatic progenitor cells prepared from iPSC-O cells; qRT-PCR after differentiation
[5] = test system: gut organoid differentiated from Edom-iPS cells; assay: culture of gut organoid in the presence of puromycin; assay type: cell-based; settings: 2 days
Description: Gut organoid was prepared from Edom-iPS cells (PLoS Genet., 2011; 7 (5):e1002085, doi.org/10.1371/journal.pgen.1002085), menstrual blood-derived iPS cells, according to the procedures described in Uchida, H. et al., JCI Insight, 2017; 2 (1): e86492. After a lapse of 3 months, the gut organoid was cultured for 2 days in the presence of […] puromycin.

[6] = conditions of Table 6, data not shown
[7] = hepatic cells differentiated from cells selected with ammonia, qRT-PCR, vs no ammonia selection

Compound	colony of cells after culture with antibiotic [1]	colony of cells after culture with antibiotic [2]	CYP3A4 expression of the cells selected with antibiotic [2, 6]	further results
CN[C@@H]1[C@@H](O)[C@@H](O[C@@H]2[C@@H](O)[C@H](O[C@H]3O[C@H]([C@@H](C)O)[C@@H](O)[C@H](O)[C@H]3N)[C@@H](N)C[C@H]2N)OC[C@]1(C)O [G418]	A colony of the cells was obtained	A colony of the cells was obtained	markedly high level	
Cc1c(N)nc([C@H](CC(N)=O)NC[C@H](N)C(N)=O)nc1C(=O)N[C@H](C(=O)N[C@H](C)[C@@H](O)[C@H](C)C(=O)N[C@H](C(=O)NCCC1=N[C@@H](c2nc(C(=O)NCCCCN=C(N)N)cs2)CS1)[C@@H](C)O)[C@@H](O[C@@H]1O[C@@H](CO)[C@@H](O)[C@H](O)[C@@H]1O[C@H]1O[C@H](CO)[C@@H](O)[C@H](OC(N)=O)[C@@H]1O)c1cnc[nH]1 [Zeocin™, phleomycin D1]	A colony of the cells was obtained	A colony of the cells was obtained		CYP3A4 expression of the cells selected with antibiotic [2]: markedly high level
N [ammonia]				colony formation after selective culture with ammonia [3]: A colony was formed; colony formation after selective culture with ammonia ([4]; 5 mg/ml or 8 mg/ml ammonia, 2 days, after puromycin selection): A colony was formed; expression level of CPS1 [4, 7]: Elevation; expression level of CYP3A4 [4, 7]: further elevate; expression level of OTC [4, 7]: Elevation
CN(CC[C@H](N)CC(=O)N[C@H]1C=C[C@H](n2ccc(N)nc2=O)O[C@@H]1C(=O)O)C(=N)N [blasticidin S]	A colony of the cells was obtained	A colony of the cells was obtained	markedly high level	
COc1ccc(C[C@H](N)C(=O)N[C@H]2[C@@H](O)[C@H](n3cnc4c(N(C)C)ncnc43)O[C@@H]2CO)cc1 [puromycin]		A colony of the cells was obtained	markedly high level	colony of cells after culture in the presence of puromycin ([1]; 3 μg/ml puromycin, 2 days, modified SCM-6F8 medium): colony of the cells; cells obtained after puromycin culture of gut organoid ([5]; 2 mg/ml puromycin): Functional small intestinal epithelial progenitor cells having the ability to metabolize drugs were obtained; cells obtained after puromycin culture of gut organoid ([5]; 400 mg/ml puromycin): Functional small intestinal epithelial progenitor cells having the ability to metabolize drugs were obtained
phleomycin	A colony of the cells was obtained	A colony of the cells was obtained		
